In patent publication EP1953237A1, “A method for the production of short chained glycolipids” (ECOVER N.V., priority 2007, dated 2008):
Where two headings read alike, the source gives them in different places. Blank lines part the entries; values can stand above or below the compound they belong to.

Legend:
[1] = tested on: Candida bombicola; assay type: cell-based; conditions: for number of colony forming units: ester 30 g/l in total
Experimental: A one litre baffled shake flask was filled with 200 ml medium according to Lang and co-workers (2000) and inoculated with Candida bombicola and left to grow at 30°C and 200 rpm. After 48 h 10 g/l Dodecyl glutarate was added. On day 5, 6 and 7 another 7.5 , 5 and 7.5 g/l ester was added. On day 10 the fermentation was stopped. The number of colony forming units was somewhat lower compared to fermentations on rapeseed oil or glucose. […] The sophorolipid yield as gravimetrically determined amounted 26 g/l. The residual ester concentration was 13 g/l. Dodecyl glutarate is a solid which was difficult to dose and tended to agglomerate, thus limiting the availability to Candida and probably causing part of the residual substrate. […] These peaks were identified by RP-HPLC-MS (Waters ZQ) using quadrupole electrospray negative ion detection (see figure 1). […] Both the lactonic and the acid diacetylated form were identified as well as traces of monoacetylated species. [formula]
To verify whether the ester or the glutaric acid which may be released following hydrolysis during the fermentation were toxic, 200 ml cultures were set up in one litre shaking flasks at 200 rpm. After 48 hours glutaric acid was added; 0, 10 or 100 %, the latter corresponding to the maximum amount of glutaric acid after hydrolysis of 30 g/l dodecyl glutarate (which equals the total amount of substrate added for synthesis). Eight days after the initial addition of glutaric acid the fermentation was stopped. […] It is therefore concluded that the toxicity of dodecyl glutarate is due to the product itself, rather than to hydrolysis products.
Taking into account the above results, a new experiment was set up in a Biostat B5 containing 3 litre medium to which 4g/l rapeseed oil was added in order to avoid toxic effects during the growth phase. From 48 hours onwards small portions of dodecyl glutarate, ester T0 in table 3 were added daily, totalling 145.5 gram during 7 days. Dodecyl glutarate has the same apparent chain length as stearic acid. After the last addition on day 8, the fermentation was run for another 48 hour and terminated 240 hours after the start. The fermentor was operated at 800 rpm mixing speed, 30°C and 1 vvm aeration, always assuring far higher oxygen concentrations than the 15% or less described in US6433152. After 140 hours the initial glucose was almost completely consumed and an additional 43 g/l was added. The pH was kept at 3.5 with 5 M NaOH and the oxygen saturation was varied between 70 and 85% during the production phase, rising 10 to 20 hours after each addition, which indicated the substrate was more or less consumed. The number of CFU in the production phase remained at approximately 6.10^9/ml, the dry cell weight at about 15 g/l, both values being considerably lower than typical values for rapeseed oil fermentations with resp. […] After about 200 hours more and more yeast cells changed aspect from the normal round shape to a flattened shape. This forms an indication of the stress the cells were experiencing due to the product formed and or the decreasing glucose concentration. […]
A new T2 batch was produced with increased care to completely remove the solvent. This batch was not toxic, with the number of CFU remaining stable (above 10^9/ml) over time, independent of the substrate concentration.
Shakeflask experiments with decyl heptanoate (ester T10 in table 2) gave similar results, indicating high toxicity for the first ester batch. […] The mass spectrometric analysis after alkaline hydrolysis of sophorolipids obtained from T10 ester, other than the obvious de novo sophorolipids and hydroxy dodecanoic acid is summarized in table 6 below. […] Note that again methyl terminated sophorolipids as well as sophorolipids with surplus glucose units were identified as de novo synthesized products. For both esters the dissolved oxygen concentration never came below 40% and averaged 65% (T2) and 63% (T10). […]

[2] = to clarify 100 ml AD solution of 2.5 wt. % laureth sulphate and 10% NaOH
Experimental: In this example the amount of hydrotrope needed to clarify a 100 ml AD solution of 2.5 wt. % laureth sulphate and 10% NaOH.

[3] = tested on: M. furfur; test: Minimal inhibitory concentration, agar dilution with olive oil overlay; assay type: cell-based; conditions: 48 hours at 37°C, Sabouraud's dextrose agar with olive oil
Experimental: The yeast M. furfur is one of the natural causes of dandruff formation. Since it is a lipophilic yeast, the in vitro growth must be stimulated by natural oils or other fatty substances when determining minimal inhibitory concentrations (MIC). We used the most common method, which is to overlay Sabouraud's dextrose agar containing cycloheximide (actidione) with olive oil.
A dilution series (1, ½ ¼, 1/8, 1/16..) was prepared. One ml of this dilution was added to 3 petri dishes per concentration and mixed with the warm agar. After cooling a drop of the yeast culture suspension was dropped on the petri dish and left to grow for 48 hours at 37°C.
The MIC was determined for azelaic acid (pa VWR) neutralized with NaOH, azelaic mixture with SL9:0 (from ex.O.1) and calcium purified azelaic mixture with SL9:0. Whereas a 30% azelaic solution was needed for complete inhibition was needed, only 20% of the (SL9-azelaic) mixture of ex.O.1 was needed.

[4] = shake flask, new/improved ester batch, solvent removed
[5] = shake flask, 10 or 100 % of the amount released from 30 g/l dodecyl glutarate, 8 days

Structure (SMILES): CCCCCCCCCCCCOC(=O)CCCC(=O)O [dodecyl glutarate, Dodecyl glutarate]
toxicity ([1]; Biostat B5 fermentor): moderate toxicity
number of CFU in the production phase ([1]; Biostat B5 fermentor, 145.5 gram ester during 7 days): approximately 6.10^9 /ml
dry cell weight ([1]; Biostat B5 fermentor, production phase): about 15 g/l
toxicity effect of the ester ([1]; shake flask fermentation): moderate toxicity effect
number of colony forming units ([1]; shake flask, at the end of the experiment (day 10)): ~1.10^9 /ml
number of colony forming units ([1]; shake flask, value before the drop (printed 'approx. 4', x 10^9 implied)): approx. 4 /ml

Structure (SMILES): CCCCCCCCCCCCOC(=O)CCCC [dodecyl pentanoate]
substrate concentration from which toxicity was shown ([1]; shake flask, first ester batch): ≥ 10 mM
substrate toxicity ([1]; shake flask, first ester batch): pronounced substrate toxicity
number of CFU ([1]; shake flask, new batch, stable over time, independent of substrate concentration): above 10^9 /ml
substrate toxicity [1, 4]: not toxic

Structure (SMILES): O=C(O)CCCC(=O)O [glutaric acid, reference compound]
growth in terms of colony forming units [1, 5]: did not inhibit growth
sophorolipid production by Candida bombicola [1, 5]: nor did it lower the sophorolipid production

Now from value to compound, other results behind:

% active matter needed [2]: 26%
Structure (SMILES): CCO [Ethanol]

MIC (lowest concentration which completely inhibits growth) [3]: 30%
Structure (SMILES): O=C(O)CCCCCCCC(=O)O [azelaic acid]

number of CFU ([1]; shake flask, improved batch, after reduction): 3 x 10^9 CFU/ml
number of CFU ([1]; shake flask, improved batch, before reduction): 6,5 x 10^9 CFU/ml
Structure (SMILES): CCCCCCCCCCOC(=O)CCCCCC [decyl heptanoate]
substrate toxicity ([1]; shake flask, first ester batch): high toxicity
substrate toxicity [1, 4]: slightly toxic
